In PubChem BioAssay (NCI) one finds GI50 and TGI data, which are given here for 22 compounds.

Among the test systems are PC-3 prostate; T-47D breast; DU-145 prostate; DMS 114 small cell lung; M19-MEL melanoma; KM20L2 colon; LXFL 529 NSCLC.
Holding throughout (assay): NCI-60 cell line screen, 48 h

Structures are written as SMILES.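 1) Cells in 96-well plates. 2) Compound, 48 h, 5 concentrations. 3) Linear interpolation between surrounding doses. 4) Unreached endpoint = highest concentration. GI50: concentration for 50% inhibition of growth. TGI: concentration producing complete growth inhibition.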

For the compound `O=Nc1c(-c2c(O)[nH]c3ccc([N+](=O)[O-])cc23)[nH]c2ccc(O)cc12`, the GI50 with PC-3 prostate is 0.394 µM; in the experiment with T-47D breast, 0.506 µM; with DU-145 prostate, 0.305 µM. Moreover, the TGI in the experiment on PC-3 prostate and in the experiment with T-47D breast was > 100 µM throughout.
For `CCn1c(C(=O)N(C2CC2)C2CC2)cc2c3c(ncn3C)c(Nc3cc(C)n(C)n3)nc21`, the GI50 in the experiment on PC-3 prostate, in the experiment on T-47D breast and in the experiment on DU-145 prostate was > 100 µM in each case. In addition, the TGI in the experiment on PC-3 prostate, in the experiment on T-47D breast and in the experiment with DU-145 prostate was > 100 µM in each case.
Turning to `COc1ccc(Nc2ncc(Br)c(NCCCNC(=O)C3CCC3)n2)cc1`, the GI50 with PC-3 prostate is 14.5 µM; in the experiment with T-47D breast, 41.2 µM; with DU-145 prostate it was 20.5 µM. The values for the TGI with PC-3 prostate, in the experiment with T-47D breast and in the experiment with DU-145 prostate were > 100 µM, 98.7 µM and > 100 µM, respectively.
For the compound `CCOC(=O)C1=C(C(=O)c2ccc(C)cc2)C(c2cccc([N+](=O)[O-])c2)C(C(=O)c2ccc(C)cc2)=C(C(=O)OCC)N1`, the TGI in the experiment with PC-3 prostate is 59.9 µM; with T-47D breast, 8.84 µM; in the experiment on DU-145 prostate, 32.2 µM.
In the case of `OC1c2ccccc2C2(O)C1C(c1ccccc1)C(c1ccccc1)C2(O)c1ccccc1` (stereo unspecified), the TGI with DMS 114 small cell lung was found to be 41.8 µM; in the experiment with M19-MEL melanoma, 38 µM; in the experiment with KM20L2 colon it was 22.5 µM; with LXFL 529 NSCLC, 54.6 µM.
Turning to `O=C1c2ccc([N+](=O)[O-])cc2-c2c1c1ccccc1c(=O)n2CCCNCCCNCCCn1c2c(c3ccc([N+](=O)[O-])cc3c1=O)C(=O)c1ccccc1-2`, the GI50 in the experiment on PC-3 prostate is 3.31 µM; in the experiment on T-47D breast, 2.23 µM; with DU-145 prostate, 0.667 µM. Moreover, the TGI was determined as 15.9 µM in the experiment on PC-3 prostate, 7.95 µM in the experiment with T-47D breast and 2.03 µM in the experiment on DU-145 prostate.
With `CCCn1c(SC)nc(COC(=O)NC)c1COC(=O)NC`, the TGI in the experiment with PC-3 prostate, in the experiment with T-47D breast and in the experiment on DU-145 prostate was > 100 µM each time.
Turning to `CN1CCN(c2ccc(NC(=O)c3nc4ccc5[nH]ncc5c4c4c3CCCC4)cc2C(F)(F)F)CC1`, in the experiment on T-47D breast, the GI50 was 0.835 µM and the TGI was 1.74 µM. In the experiment with DU-145 prostate, the GI50 was 1.03 µM and the TGI stood at 2.15 µM.
Regarding `CC1(C)CC[C@H](Nc2ncc(C(F)(F)F)c(-c3c[nH]c4c(P(C)(C)=O)c(C#N)ccc34)n2)CN1`, the GI50 is 0.0396 µM in the experiment on PC-3 prostate, 0.0255 µM in the experiment on T-47D breast and 0.52 µM with DU-145 prostate. The TGI in the experiment with PC-3 prostate is 43.3 µM; in the experiment with T-47D breast it was 5.84 µM; with DU-145 prostate it was > 36.4 µM.
Consider `CSC(CC(=O)O)C(=O)O` (stereo unspecified), for which the TGI in the experiment with PC-3 prostate, in the experiment with T-47D breast and in the experiment with DU-145 prostate was > 100 µM each time.
As to `C=CCN(/C=C1/C(=O)O[C@H](COC)[C@@]2(C)C1=C(O)C(=O)C1=C2[C@H](OC(C)=O)C[C@]2(C)C(=O)CC[C@@H]12)CC=C`, the results for the GI50 in the experiment on PC-3 prostate, in the experiment with T-47D breast and with DU-145 prostate were 0.177 µM, 0.0992 µM and 2.43 µM, respectively. Moreover, the TGI with PC-3 prostate is > 10 µM; in the experiment on T-47D breast, > 3.78 µM; in the experiment on DU-145 prostate it was > 10 µM.
Take `O=[N+]([O-])c1ccc(S(=O)Cc2ccccc2)c([N+](=O)[O-])c1` (stereo unspecified): the GI50 in the experiment with PC-3 prostate is 14.6 µM; with T-47D breast it was 1.51 µM; in the experiment with DU-145 prostate, 11 µM. Besides, the TGI came to 30.9 µM in the experiment with PC-3 prostate, 3.6 µM in the experiment on T-47D breast and 23 µM in the experiment on DU-145 prostate.
As to `CO/C(=N\N=C\c1cccc(Cl)c1)c1ccncc1`, the TGI in the experiment on PC-3 prostate, with T-47D breast and with DU-145 prostate was > 10 µM throughout.
Turning to `O=C([CH-]C(=O)c1ccccc1)c1ccccc1.O=C([CH-]C(=O)c1ccccc1)c1ccccc1.O=C([CH-]C(=O)c1ccccc1)c1ccccc1.[Nd+3].[OH3+]`, in the experiment on KM20L2 colon, the GI50 is 10.9 µM and the TGI was 48 µM.
Take `CC(C)CNCC(O)COc1ccc(C(C)(C)c2ccc(OCC(O)CNCC(C)C)cc2)cc1` (stereo unspecified): the GI50 was 2.3 µM with PC-3 prostate, 1.63 µM in the experiment with T-47D breast and 2.46 µM in the experiment on DU-145 prostate. In addition, the results for the TGI with PC-3 prostate, with T-47D breast and with DU-145 prostate were 7.02 µM, 3.63 µM and 7.49 µM, respectively.
Take `CC1OC2=N[C@@H]1C(=O)N[C@@H](C(C)C)C1=N[C@H](C(=O)N[C@@H](C(C)C)C3=N[C@H](C(=O)N[C@@H](C(C)C)C4=N[C@H](C(=O)N[C@H]2C(C)C)C(C)O4)C(C)O3)C(C)O1` (stereo partly specified): the TGI with PC-3 prostate, in the experiment with T-47D breast and in the experiment on DU-145 prostate was > 10 µM throughout.
With `O=C1C(c2c[nH]c3ccccc23)=C(c2c[nH]c3ccccc23)C(=O)N1O`, the GI50 with PC-3 prostate, with T-47D breast and with DU-145 prostate was > 25 µM each time. The TGI in the experiment on PC-3 prostate, with T-47D breast and in the experiment with DU-145 prostate was > 25 µM throughout.
With `COc1ccc(-c2cc(=O)c3c(C)cc(C)nc3[nH]2)cc1`, the GI50 in the experiment with PC-3 prostate is 23.9 µM. Also, the TGI in the experiment on PC-3 prostate, with T-47D breast and in the experiment on DU-145 prostate was > 100 µM each time.
On to `Cc1ccc(/C(=N\N=C(N)N)c2ccccc2)cc1`, for which the GI50 is 0.406 µM with PC-3 prostate, 0.421 µM in the experiment with T-47D breast and 0.41 µM in the experiment with DU-145 prostate. Further, the TGI with PC-3 prostate came to 18.7 µM; in the experiment on T-47D breast, 24.6 µM; with DU-145 prostate, 10.4 µM.
`FC(F)(F)c1cc(-c2nnc3n2N=C(N2CCCC2)CS3)cc(C(F)(F)F)c1`: the GI50 in the experiment on PC-3 prostate was > 50 µM; with T-47D breast it was 19.3 µM; with DU-145 prostate, > 50 µM. In addition, the TGI in the experiment on PC-3 prostate, in the experiment with T-47D breast and in the experiment on DU-145 prostate was > 50 µM in each case.
As to `CCC(=O)O[C@H]1CC[C@H]2[C@@H]3CC[C@H]4CC(=O)[C@H](C)C[C@]4(C)[C@H]3CC[C@]12C`, the GI50 in the experiment on PC-3 prostate is 10.5 µM; with T-47D breast, 26 µM; in the experiment on DU-145 prostate it was > 79.7 µM. In addition, the TGI in the experiment with PC-3 prostate, with T-47D breast and in the experiment with DU-145 prostate was > 100 µM throughout.
With `CCc1n(Cc2ccc3ccccc3n2)cc[n+]1Cc1ccc2ccccc2n1`, the GI50 in the experiment on PC-3 prostate was 0.163 µM; with T-47D breast, 0.046 µM; with DU-145 prostate, 1.93 µM. Further, the TGI in the experiment with PC-3 prostate was 10.7 µM; in the experiment on T-47D breast it was 0.794 µM; in the experiment with DU-145 prostate it was 51.7 µM.
